Measured values: patent US6623741B1, “Methods and compositions for inhibition of membrane fusion-associated events including RSV transmission” (Trimeris, Inc., priority 2000, dated 2003)
“Also recorded” adds a separate entry of the source. Read-outs that look alike come from different tables or passages of the source.

How the values were obtained:
[1] = biological target: T1, DP107-like domain of the RSV F1-protein (MF5.1 fusion protein) (Human respiratory syncytial virus A, UniProt P03420); test: biochemical; assay type: binding
T1 construct: made in house
T1 sequence (P03420 142-302): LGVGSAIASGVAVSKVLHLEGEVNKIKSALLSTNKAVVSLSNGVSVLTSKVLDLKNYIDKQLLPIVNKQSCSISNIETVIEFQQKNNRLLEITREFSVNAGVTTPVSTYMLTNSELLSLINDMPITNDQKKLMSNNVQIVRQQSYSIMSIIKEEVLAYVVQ
Method: (§1) After incubation and washing, unbound Fab-d is removed from the plates and bound Fab-d is quantitated. A no-inhibitor control should also be conducted.
(§2) Such an assay takes advantage of accepted radioligand and receptor binding principles. (See, for example, Yamamura, H. I. et al., 1985, “Neurotransmitter Receptor Binding”, 2nd ed., Raven Press, NY.) As above, M41Δ78 is immobilized onto a solid support such as a microtiter well. […] Specific binding to M41Δ78 is defined as the difference of the binding of the labeled DP178 preparation in the microtiter wells (totals) and the binding in identical wells containing, in addition, excess unlabeled DP178 (nonspecifics).
Specifically, the DNA sequence corresponding amino acid residues 142-302 of the RSV F1 protein was amplified by PCR and cloned into the Xmn I site of the expression vector pMal-p2 (New England Biolab) to give MF5.1. These amino acid residues correspond to the extracellular domain of the RSV F1 protein including its DP107 region but excluding the DP178 region.
Cell fusion assays were performed with each of the peptides as described in Section 17 above.

HIV-1LAI = conditions: for IC50 (RT production): CEM cells, 7 days
Method: Cell Free Virus Infection Assay:
(§3) Synthetic peptides were incubated at 37° C. with either 247 TCID50 (for experiment depicted in FIG. 2), or 62 TCID50 (for experiment depicted in FIG. 3) units of HIV-1LAI virus or 25 TCID50 units of HIV-2^NIHZ and CEM CD4^+ cells at peptide concentrations of 0, 0.04, 0.4, 4.0, and 40 μg/ml for 7 days. The resulting reverse transcriptase (RT) activity in counts per minute was determined using the assay described, below, in Section 6.1.5. See, Reed, L. J. et al., 1938, Am. J. Hyg. 27: 493-497 for an explanation of TCID50 calculations.
Reverse Transcriptase Assay:
(§4) The micro-reverse transcriptase (RT) assay was adapted from Goff et al. (Goff, S. et al., 1981, J. Virol. 38:239-248) and Willey et al. (Willey, R. et al., 1988, J. Virol. 62:139-147). Supernatants from virus/cell cultures are adjusted to 1% Triton-X100. A 10 μl sample of supernatant was added to 50 μl of RT cocktail in a 96-well U-bottom microtitre plate and the samples incubated at 37° C. for 90 min. The RT cocktail contained 75 mM KCl, 2 mM dithiothreitol, 5 mM MgCl2, 5 μg/ml poly A (Pharmacia, cat. No. 27-4110-01), 0.25 units/ml oligo dT (Pharmacia, cat. No. 27-7858-01), 0.05% NP40, 50 mM Tris-HCl, pH 7.8, 0.5 μM non-radioactive dTTP, and 10 μCi/ml ^32P-dTTP (Amersham, cat. No. PB. 10167).
After the incubation period, 40 μl of reaction mixture was applied to a Schleicher and Schuell (S+S) NA45 membrane (or DE81 paper) saturated in 2×SSC buffer (0.3 M NaCl and […] sodium citrate) held in a S+S Minifold over one sheet of GB003 (S+S) filter paper, with partial vacuum applied. Each well of the minifold was washed four times with 200 μl 2×SSC, under full vacuum. The membrane was removed from the minifold and washed 2 more times in a pyrex dish with an excess of 2×SSC. Finally, the membrane was drained on absorbent paper, placed on Whatman #3 paper, covered with Saran wrap, and exposed to film overnight at −70° C.
DP178 (SEQ ID NO:15) was next tested for its ability to block CD-4^+ CEM cell infection by cell-free HIV-1 virus. […]

[2] = Cell proliferation and toxicity assay; assay type: cell-based; conditions: human, CEM cells
Method: (§5) Cell proliferation and toxicity assay: Approximately 3.8×10^5 CEM cells for each peptide concentration were incubated for 3 days at 37° C. in T25 flasks. Peptides tested were DP178 (SEQ ID NO:15) and DP-116 (SEQ ID NO:1552), as described in FIG. 1. Peptides were synthesized as described, above, in Section 6.1. The concentrations of each peptide used were 0, 2.5, 10, and 40 μg/ml. Cell counts were taken at incubation times of 0, 24, 48, and 72 hours.
(§6) CEM cells were incubated in the presence of varying concentrations of DP178 (SEQ ID NO:15), and DP-116 (SEQ ID NO:1552), a peptide previously shown to be ineffective as an HIV inhibitor (Wild, C. et al., 1992, Proc. Natl. Acad. Sci. USA 89:10,537-10,541). Additionally, cells were incubated in the absence of either peptide.

CEM cells = test: Cell proliferation and toxicity assay; assay type: cell-based
Method: as §5, §6

[3] = biological target: T2, M41Δ178 fusion protein (DP107 domain of HIV gp41) (Human immunodeficiency virus type 1 group M subtype B, UniProt P03377); test: biochemical; assay type: binding, HIV-1
T2 construct: made by cloning the DNA fragment corresponding to gp41 amino acids 540-642 into the Xmn I site of pMal-p2; made in house
T2 sequence (P03377 540-642, stated change not applied): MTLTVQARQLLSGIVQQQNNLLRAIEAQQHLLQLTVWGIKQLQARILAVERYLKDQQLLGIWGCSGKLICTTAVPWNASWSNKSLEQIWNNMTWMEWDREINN
Method: as §1, §2

HIV-1IIIB [4] = assay type: cell-based; conditions: for IC90: HIV-1 induced membrane fusion, read-out: Cell Fusion (IC90)
Method: Cell Fusion Assays For Anti-HIV Activity:
Cell fusion assays were performed as previously described (Matthews et al., 1987, Proc. Natl. Acad. Sci. USA 84: […]). CEM cells (7×10^4) were incubated with HIV-1IIIB chronically infected CEM cells (10^4) in 96-well flat-bottomed half-area plates (Costar) in 100 μl culture medium. Peptide and fusion proteins at various concentrations in 10 μl culture medium were incubated with the cell mixtures at 37° C. for 24 hours. Multinucleated syncytia were estimated with microscopic examination.

HIV-1IIIB [5] = test system: HIV-1IIIB
[6] = test system: HIV-1 (HIV-1LAI, HIV-1MN, HIV-1RF, HIV-1SF2); assay type: cell-based
Method: Approximately 7×10^4 Molt cells were incubated with 1×10^4 CEM cells chronically infected with the HIV-1LAI virus in 96-well plates (one-half area cluster plates; Costar, Cambridge, Mass.) in a final volume of 100 μl culture medium as previously described (Matthews, T. J. et al., 1987, Proc. Natl. Acad. Sci. USA 84: 5424-5428). Peptide inhibitors were added in a volume of 10 μl and the cell mixtures were incubated for 24 hr. at 37° C. At that time, multinucleated giant cells were estimated by microscopic examination at a 40× magnification which allowed visualization of the entire well in a single field.
The initial screen for antiviral activity assayed peptides' ability to block syncytium formation induced by overnight co-cultivation of uninfected Molt 4 cells with chronically HIV-1 infected CEM cells. […] In the first of these experiments, serial DP178 (SEQ ID NO:15) peptide concentrations between 10 μg/ml and 12.5 ng/ml were tested for blockade of the cell fusion process. For these experiments, CEM cells chronically infected with either HIV-1LAI, HIV-1MN, HIV-1RF, or HIV-1SF2 virus were cocultivated overnight with uninfected Molt 4 cells.
The next series of experiments involved the preparation and testing of a DP178 (SEQ ID NO:15) homolog for its ability to inhibit HIV-1-induced syncytia formation.
(§7) The next series of experiments involved a comparison of DP178 (SEQ ID NO:15) HIV-1 and HIV-2 inhibitory activity.

HIV-2 = test: Cell fusion assay: HIV-2 mediated syncytia formation; assay type: cell-based
Description: as §7

HIV-2NIHZ = test: Cell free virus infection assay (RT production, CEM cells); assay type: cell-based
Method: as §3
as §4, with “10167). […]” for “10167).”

[7] = test system: Fab-d (human recombinant Fab); test: ELISA analysis of Fab-d binding / DP178 binding to the leucine zipper motif of gp41; conditions: reagent alone
Method: ELISA Analysis of DP178 Binding to the Leucine Zipper Motif of gp41:
Each well was washed three times with distilled water then blocked with 3% bovine serum albumin (BSA) for 2 hours. After blocking, peptides with 0.5% BSA in TBST (40 mM Tris-HCl pH7.5, 150 mM NaCl, 0.05% Tween 20) were added to the ELISA plates and incubated at room temperature for 1 hour. After washing three times with TBST, Fab-d was added at a concentration of 10 ng/ml with 0.5% BSA in TBST. The plates were washed three times with TBST after incubation at room temperature for 1 hour. Horseradish peroxidase (HRP) conjugated goat antihuman Fab antiserum at a 2000 fold dilution in TBST with 0.5% BSA was added to each well and incubated at room temperature for 45 minutes. The plates were then washed four times with TBST. The peroxidase substrate o-phenylene diamine (2.5 mg/ml) and 0.15% H2O2 were added to develop the color. The reaction was stopped with an equal volume of 4.5 N H2SO4 after incubation at room temperature for 10 minutes. The optical density of the stopped reaction mixture was measured with a micro plate reader (Molecular Design) at 490 nm.

## Ac-VYPSDEFDASISQVNEKINQALAYIRKADELLHNV-NH2 [Peptide T1091]
[1]
  binding affinity relative to T112: approximately ten-fold less

## Ac-LQARILAVERYLKDQQQ-NH2 [DP-116, reference compound]
HIV-1LAI; FIG. 1 legend
  inhibition of HIV-1 cell free virus infection (in words): negative for inhibition of HIV-1 infection
[2]; 2.5 μg/ml, 0 hours
  viability at 0 h, 2.5 µg/mL: 98%
[2]; 2.5 μg/ml, 24 hours
  viability at 24 h, 2.5 µg/mL: 96%
[2]; 2.5 μg/ml, 48 hours
  viability at 48 h, 2.5 µg/mL: 98%
[2]; 2.5 μg/ml, 72 hours
  viability at 72 h, 2.5 µg/mL: 99%
[2]; 10 μg/ml, 0 hours
  viability at 0 h, 10 µg/mL: 98%
[2]; 10 μg/ml, 24 hours
  viability at 24 h, 10 µg/mL: 95%
[2]; 10 μg/ml, 48 hours
  viability at 48 h, 10 µg/mL: 93%
[2]; 10 μg/ml, 72 hours
  viability at 72 h, 10 µg/mL: 98%
[2]; 40 μg/ml, 0 hours
  viability at 0 h, 40 µg/mL: 98%
[2]; 40 μg/ml, 24 hours
  viability at 24 h, 40 µg/mL: 95%
[2]; 40 μg/ml, 48 hours
  viability at 48 h, 40 µg/mL: 98%
[2]; 40 μg/ml, 72 hours
  viability at 72 h, 40 µg/mL: 97%

## enfuvirtide
CEM cells; 2.5 μg/ml, 0 hours
  % Viability: 98%
CEM cells; 2.5 μg/ml, 24 hours
  % Viability: 93%
CEM cells; 2.5 μg/ml, 48 hours
  % Viability: 96%
CEM cells; 2.5 μg/ml, 72 hours
  % Viability: 96%
CEM cells; 10 μg/ml, 0 hours
  % Viability: 98%
CEM cells; 10 μg/ml, 24 hours
  % Viability: 97%
CEM cells; 10 μg/ml, 48 hours
  % Viability: 98%
CEM cells; 10 μg/ml, 72 hours
  % Viability: 98%
CEM cells; 40 μg/ml, 0 hours
  % Viability: 98%
CEM cells; 40 μg/ml, 24 hours
  % Viability: 97%
CEM cells; 40 μg/ml, 48 hours
  % Viability: 95%
CEM cells; 40 μg/ml, 72 hours
  % Viability: 97%
CEM cells; CEM cells, up to 40 μg/ml, 3 days
  cytotoxic effects on cells in culture: non-cytotoxic; also recorded: no cytotoxic effects
[3]
  Kd: 10 nM

## Ac-NNLLRAIEAQQHLLQLTVWGIKQLQARILAVERYLKDQ-NH2 [DP107]
HIV-1IIIB [4]
  IC90: 1000 nM
HIV-1IIIB [5]; read-out: HIV-infectivity (IC90), HIV-1IIIB
  IC90: 1000 nM

## Enfuvirtide
[6]; HIV-1LAI infected CEM + Molt 4 cells
  concentration affording complete protection against syncytium formation (lowest concentration tested): ≤ 12.5 ng/mL
[6]; HIV-1MN, HIV-1RF, HIV-1SF2 infected CEM + Molt 4 cells
  concentration affording complete protection against syncytium formation (lowest concentration tested): ≤ 100 ng/mL
[6]; HIV-1 mediated CD-4+ cell-cell fusion
  concentration completely blocking virus-induced syncytia formation (lowest effective inhibitory concentration): 1 to 10 ng/mL
[6]; HIV-1 vs HIV-2 comparison, FIG. 5
  concentration blocking HIV-1-mediated syncytia formation: below 1 ng/ml
HIV-2
  selectivity as inhibitor of HIV-1-mediated over HIV-2 mediated cell fusion: 4 log
HIV-2; FIG. 5
  concentration failing to block HIV-2 mediated syncytia formation: > 10 µg/mL
HIV-1LAI; 62 TCID50 HIV-1LAI
  IC50 (RT production): about 31 ng/ml
HIV-1LAI; 247 TCID50 HIV-1LAI
  IC50 (RT production): 0.09 µg/mL
HIV-2NIHZ; 25 TCID50 HIV-2NIHZ, CEM cells, 7 days
  IC50 for HIV-2NIHZ (in words): much higher IC50
HIV-2NIHZ; cell-free infection
  potency as HIV-1 inhibitor versus HIV-2 inhibitor: two logs more potent
HIV-1IIIB [4]; 10 nM
  syncytia in the presence of the peptide: no observable syncytia
HIV-1IIIB [4]
  IC90: 1 nM
[7]
  Fab-d binding (in words): failed to bind
HIV-1IIIB [5]; 1IIIB
  IC90: 80 nM
